These results are taken from PubChem BioAssay (NCI).

Holding throughout (assay): growth of human tumour cells (NCI), 48 h
For assay [1], the system named is HCT-15 colon.
Assay [2] has as its system RPMI-8226 leukemia.
In assay [3] the test system is LOX IMVI melanoma.
Assay [4] concerns HCC-2998 colon.
Assay [5] relates to SN12C renal.
For assay [6], the system named is IGROV1 ovarian.
For assay [7], the system named is PC-3 prostate.
The subject of assay [8] is SNB-19 CNS.
The test system of assay [9] is K-562 leukemia.
Assay [10] deals with SF-295 CNS.

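1) Cells in 96-well plates. 2) Compound, 48 h, 5 concentrations. 3) Linear interpolation between surrounding doses. 4) Unreached endpoint = highest concentration. The concentration for 50% growth inhibition is given as GI50. At the TGI there is no net growth.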 Where only a bound is given, the exact number is not on record here.

Take `C/C(=N\N=C(\[Se])N(C)C)c1ccccn1`: the TGI in assay [1] came out at 15.9 µM; in assay [2], 53.2 µM; in assay [3] it was 12.8 µM; in [4], 13.9 µM; in assay [5], 14.9 µM; in assay [6], 10.1 µM. Besides, the TGI in [7] was 13.9 µM; in assay [8] it was 15.9 µM; in assay [9] it was 23.6 µM; in assay [10], 12 µM.

`CCN(CC)CCN(Cc1ccc(F)cc1)c1ccc(CO)c(Cl)c1`: the GI50 in assay [1] was 12.7 µM; in assay [2], 23.8 µM; in assay [3], 21.1 µM; in assay [4], 3.09 µM; in assay [5], 27.7 µM; in assay [6], 0.832 µM. Moreover, the GI50 in assay [7] was 13.2 µM; in assay [8] it was over 100 µM; in assay [9], 10.2 µM; in assay [10], 15.1 µM. Further, the TGI in [1] was over 100 µM; in assay [2], 75.3 µM; in assay [3] it was 52.5 µM; in assay [4] it was 12.8 µM; in [5] it was over 100 µM; in [6], 3.61 µM. In addition, the TGI in assay [7] was over 92.3 µM; in assay [8], over 100 µM; in assay [9], 41.5 µM; in assay [10], 49.9 µM.

In the case of `COc1ccc2c(Cl)cc(NC(=O)Nc3c(C)cccc3C)nc2c1`, the GI50 in assay [1] is 27.3 µM; in assay [2] it was over 100 µM; in assay [3], 17.3 µM; in [4] it was over 100 µM; in assay [5] it was 15.6 µM; in assay [6] it was 21.9 µM. For the same molecule, the GI50 in assay [7] is 24.5 µM; in assay [8] it was 72.7 µM; in assay [9], 60.7 µM; in assay [10], 4.31 µM. Also, the TGI in assay [1], in assay [2], in assay [3], in assay [4], in assay [5] and in assay [6] was over 100 µM throughout. Moreover, the TGI in assay [7] was over 100 µM; in [8], over 100 µM; in [9], over 100 µM; in [10], 43.9 µM.

As to `CCCCCCCCCCCCCCCC(=O)OCC1OC(OC)C2NP(=O)(N(CCCl)CCCl)OC1C2O` (stereo not given), the TGI is 14.2 µM in [1]; 15.9 µM in [2]; 6.58 µM in [3]; 9.46 µM in assay [4]; 24.8 µM in assay [5]; over 54.9 µM in assay [6]. For the same molecule, the TGI in [7] was 18.9 µM; in assay [8] it was 65.6 µM; in assay [9], 24 µM; in [10] it was over 41.8 µM.

`Cc1cc2nc3cc(C)c(N)cc3[n+](-c3ccccc3)c2cc1N`: the GI50 in assay [1] was over 100 µM; in [2], 4.25 µM; in assay [3] it was 4.78 µM; in assay [4] it was 4.05 µM; in assay [5], 1.59 µM; in [6] it was 12.4 µM. The GI50 is 3.63 µM in assay [7], 2.06 µM in assay [8], 3.39 µM in assay [9] and 2.94 µM in assay [10]. Besides, the TGI in assay [1] is over 100 µM; in [2], over 100 µM; in [3] it was over 100 µM; in assay [4], over 46 µM; in [5], over 23 µM; in assay [6], over 100 µM. In addition, the TGI in assay [7] is over 100 µM; in assay [8] it was over 100 µM; in [9], over 100 µM; in assay [10] it was over 73.8 µM.

Turning to `CCOC(=O)c1c(C)nc2c(c1N)CC(=O)N2CCc1ccccc1`, the GI50 is 0.485 µM in assay [1]; 0.345 µM in assay [2]; 0.384 µM in assay [3]; 3.49 µM in assay [4]; 0.434 µM in assay [5]; 1.26 µM in assay [6]. Moreover, the GI50 in assay [7] was 0.579 µM; in assay [8], 4.52 µM; in assay [9], 0.424 µM; in assay [10], 2.16 µM. Besides, the TGI in assay [1] turned out to be 13.6 µM; in [2] it was 5.6 µM; in assay [3], 14.7 µM; in assay [4], 12.8 µM; in [5] it was 18.3 µM; in [6], 13 µM. Also, the TGI in [7] was 24.2 µM; in assay [8], 23.3 µM; in [9] it was over 100 µM; in assay [10] it was 33.1 µM.

In the case of `CN1CCN(Cc2ccc(NC(=O)c3cncc(C#Cc4cncc5nccnc45)c3)cc2C(F)(F)F)CC1`, the GI50 in assay [1] is 2.51 µM; in assay [2], 1.86 µM; in assay [3], 0.695 µM; in assay [4], 1.73 µM; in assay [5], 1.97 µM; in [6], 1.52 µM. The GI50 in assay [7] was 4.73 µM; in [8], 9 µM; in assay [9], 0.005 µM; in [10], 7.05 µM. The TGI in assay [1] amounted to 12.9 µM; in assay [2] it was 10.6 µM; in assay [3] it was 5.48 µM; in assay [4], 8.48 µM; in assay [5] it was 13.9 µM; in assay [6] it was 7.07 µM. The TGI worked out at 32.2 µM in assay [7], 18.9 µM in [8], 9.86 µM in assay [9] and 14.4 µM in [10].

`Cc1cc(C(=O)O)c(C)n1-c1cccc(C(=O)O)c1`: the GI50 in [1], in assay [2], in [3], in assay [4], in assay [5] and in assay [6] was over 100 µM in each case. Also, the GI50 in assay [7], in [8], in [9] and in assay [10] was over 100 µM throughout. Further, the TGI in assay [1], in [2], in assay [3], in [4], in assay [5] and in [6] was over 100 µM each time. The TGI in assay [7], in [8], in assay [9] and in assay [10] was over 100 µM each time.
